What is called IC50 is the concentration needed to halve the response being measured. A word on the inhibition: it is how much of the control response was suppressed. A word on the melting point: it is the temperature, or range, at which the solid turns liquid.

Consider 5 compounds from patent US20070299092A1 (Wyeth, priority 2004, published 2007).

The target of series [1] is T1, KDR (Homo sapiens, UniProt P35968). The note with it: compound conc. 1000 nM.
Series [2] has as its target T2, human KDR (VEGF-receptor-2) (Homo sapiens, UniProt P35968).
T2 construct: beginning at Met-806; (5′-ATG GAT CCA GAT GM CTC CCA TTG) and ending at Val-1356; made in house
The series can be described thus: KDR kinase enzyme assay (DELFIA, KDR-IC-Flag, poly(Glu4-Tyr) peptide). It is filed as biochemical. The conditions noted are these: for inhibition at 0.1 µM: Concentration 100 nM; for inhibition at 0.1 µM / inhibition at 1 µM: read-out: % Inhibition; for inhibition at 1 µM: Concentration 1000 nM.

The target of series [3] is T1, KDR. The series can be described thus: cell-based. The conditions noted are these: for inhibition at 1 µM: read-out: % Inhibition of KDR kinase autophosphorylation in KDR15 cells, compound conc. 1000 nM; for IC50: IC50 (nM), inhibition of KDR kinase autophosphorylation in KDR15 cells, KDR15 cells, VEGF 50 ng/ml, phospho-KDR-Y996 immunoblot.
Series [4] has as its system Human umbilical vein endothelial cells (HUVEC). The series can be described thus: HUVEC proliferation assay, VEGF-dependent growth ([3H]-thymidine incorporation). The format is cell-based. The conditions noted are these: for inhibition at 0.1 µM / inhibition at 1 µM / inhibition at 10 µM: Homo sapiens, HUVEC; for inhibition at 1 µM: conc. 1000 nM. A digest of the protocol: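 HUVEC seeded 4000 cells/well, attached overnight, then given compound in serum/VEGF-free EBM plus 50 ng/ml VEGF (final); parallel plates used EGM2 with 2% serum lacking VEGF. Incubation 4-5 days at 37° C. DNA synthesis measured by 5 h [3H]-thymidine (1 μCi/well) incorporation, scintillation-counted.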
(In general: Uptake of a labelled nucleoside into DNA is a usual measure of proliferation.)

Series [5] concerns the target T2, human KDR (VEGF-receptor-2). Description: KDR kinase enzyme assay wash-out experiments (irreversible inhibition). It is filed as biochemical. As for the experimental part: To determine if compounds bound irreversibly to enzyme, plates were washed after the enzyme plus compound pre-incubation step and prior to the addition of ATP. Parallel plates were tested wherein one plate was processed exactly as above while a second plate was washed three times in 100 μl of 4 mM HEPES, pH 7.4, to remove unbound compound. 1× Kinase buffer (30 μl of 1 mM MnCl2, 4 mM HEPES, pH 7.4, 20 μM Na3VO4) and 20 μl of ATP/MgCl2 were added to the wash-out plate. Detection of phosphotyrosinylated peptide for both plates was performed as described above.
For each inhibitor shown in Table 2, two IC50 determinations are shown, one under normal conditions and the other where an intermediate wash-out step is carried out. […] If there was a large increase in the IC50 value in the wash-out experiment compared to the experiment where there was no wash-out, then it was determined that the compound was behaving as a conventional reversible binding inhibitor.

Several values for one entry are separate records, joined by “and”; a condition that tells them apart may be missing. Identical values can stand only once. Like-named read-outs stand apart in the source and are kept apart here.

T2 sequence (P35968 806-1356): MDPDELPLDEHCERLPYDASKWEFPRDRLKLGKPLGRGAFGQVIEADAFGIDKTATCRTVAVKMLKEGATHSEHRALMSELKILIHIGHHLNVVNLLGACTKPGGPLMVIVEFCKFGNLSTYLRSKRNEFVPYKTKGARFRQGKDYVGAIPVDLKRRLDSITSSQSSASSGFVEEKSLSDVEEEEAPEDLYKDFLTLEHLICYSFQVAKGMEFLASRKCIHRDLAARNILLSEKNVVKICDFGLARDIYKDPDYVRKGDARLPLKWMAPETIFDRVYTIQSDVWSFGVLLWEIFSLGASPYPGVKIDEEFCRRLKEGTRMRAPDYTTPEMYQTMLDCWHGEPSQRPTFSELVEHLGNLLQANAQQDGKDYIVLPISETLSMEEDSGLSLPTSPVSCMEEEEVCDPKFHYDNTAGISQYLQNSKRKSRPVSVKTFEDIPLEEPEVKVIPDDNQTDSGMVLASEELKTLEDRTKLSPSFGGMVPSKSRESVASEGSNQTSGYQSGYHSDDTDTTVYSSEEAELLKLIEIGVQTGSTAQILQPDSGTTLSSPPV
T1 sequence (P35968 20-1356): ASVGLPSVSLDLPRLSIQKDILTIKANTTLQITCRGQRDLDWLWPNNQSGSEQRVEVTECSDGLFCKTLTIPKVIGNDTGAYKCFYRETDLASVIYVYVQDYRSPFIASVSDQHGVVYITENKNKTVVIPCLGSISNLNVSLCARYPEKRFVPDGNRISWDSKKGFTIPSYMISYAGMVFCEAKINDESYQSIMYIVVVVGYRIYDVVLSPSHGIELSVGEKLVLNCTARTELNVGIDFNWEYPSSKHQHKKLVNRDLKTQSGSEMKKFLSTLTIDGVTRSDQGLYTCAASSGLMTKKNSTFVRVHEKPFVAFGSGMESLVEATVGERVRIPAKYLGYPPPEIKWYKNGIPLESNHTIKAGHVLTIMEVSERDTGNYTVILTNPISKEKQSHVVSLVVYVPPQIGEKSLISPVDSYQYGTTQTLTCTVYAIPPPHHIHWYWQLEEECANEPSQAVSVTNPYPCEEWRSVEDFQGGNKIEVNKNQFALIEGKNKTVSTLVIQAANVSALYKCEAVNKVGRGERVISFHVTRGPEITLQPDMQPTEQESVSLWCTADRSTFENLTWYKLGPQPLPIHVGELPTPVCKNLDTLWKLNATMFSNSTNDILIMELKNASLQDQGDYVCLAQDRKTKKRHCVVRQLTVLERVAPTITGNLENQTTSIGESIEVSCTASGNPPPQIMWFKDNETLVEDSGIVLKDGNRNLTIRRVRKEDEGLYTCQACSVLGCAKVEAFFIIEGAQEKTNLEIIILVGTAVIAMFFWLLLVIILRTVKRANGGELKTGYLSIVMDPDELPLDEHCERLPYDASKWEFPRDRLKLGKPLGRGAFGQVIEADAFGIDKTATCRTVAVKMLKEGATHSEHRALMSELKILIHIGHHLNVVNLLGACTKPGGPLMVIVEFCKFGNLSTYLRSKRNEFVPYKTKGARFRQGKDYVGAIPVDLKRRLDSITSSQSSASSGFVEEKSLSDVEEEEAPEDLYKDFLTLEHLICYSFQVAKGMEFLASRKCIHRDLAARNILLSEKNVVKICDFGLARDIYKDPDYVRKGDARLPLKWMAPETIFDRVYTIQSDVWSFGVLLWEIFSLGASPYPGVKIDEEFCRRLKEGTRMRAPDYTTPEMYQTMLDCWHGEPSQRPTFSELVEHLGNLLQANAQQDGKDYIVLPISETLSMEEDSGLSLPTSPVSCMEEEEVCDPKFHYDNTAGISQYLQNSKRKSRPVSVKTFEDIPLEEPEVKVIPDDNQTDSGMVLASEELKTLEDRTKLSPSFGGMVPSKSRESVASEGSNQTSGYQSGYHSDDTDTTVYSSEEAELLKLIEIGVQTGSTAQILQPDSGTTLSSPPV

In turn, `COCCOc1cc2ncnc(NC3=CC(=O)C(OCc4ccccc4)=CC3=O)c2cc1OC` [Example 96, 2-(benzyloxy)-5-{[6-methoxy-7-(2-methoxyethoxy)quinazolin-4-yl]amino}benzo-1,4-quinone] showed a melting point of 218 to 220 °C. Moreover, the “% Inhibition of KDR kinase autophosphorylation in KDR15 cells” value (shortened to “% Inhibition … in KDR15 cells”) in series [1] was 22%. Also, in series [2] (ATP conc. 10 μM), it took 52.8 nM to reach half-maximal inhibition (IC50), the inhibition at 0.1 µM was determined as 67% and the inhibition at 1 µM stood at 91%. Also, the inhibition at 1 µM in series [2] (ATP conc. 1000 μM) was found to be 96%. Further, the inhibition at 1 µM in series [3] amounted to 26%.
Take `COCCOc1cc2ncnc(NC3=CC(=O)C(N(C)C4CCCCC4)=CC3=O)c2cc1OC` [Example 80, 2-[cyclohexyl(methyl)amino]-5-{[6-methoxy-7-(2-methoxyethoxy)quinazolin-4-yl]amino}benzo-1,4-quinone]: the melting point is 178 to 180 °C. For the same compound, the “% Inhibition … in KDR15 cells” value in series [1] stood at 52%. Besides, in series [2] (ATP conc. 10 μM), the IC50 was determined as 654 nM. Also, the IC50 in series [3] is less than 62.5 nM. The same compound gave an inhibition at 0.1 µM in series [4] (conc. 100 nM) of 39%. For the same compound, 1 µM produced 85% inhibition in series [4]. Moreover, in series [4] (conc. 10000 nM), the inhibition at 10 µM was found to be 97%.
The compound `COc1cc2ncnc(NC3=CC(=O)C(c4ccccc4)=CC3=O)c2cc1OC` [Example 99, 2-[(6,7-dimethoxyquinazolin-4-yl)amino]-5-phenylbenzo-1,4-quinone] gave a melting point of 200 to 205 °C. Further, in series [1], the “% Inhibition … in KDR15 cells” value was found to be 29%. Further, in series [2] (ATP conc. 10 μM), the inhibition at 0.1 µM is 93% and the inhibition at 1 µM is 92%. Further, in series [2] (ATP conc. 1000 μM), the inhibition at 1 µM amounted to 96%. Further, the inhibition at 1 µM in series [3] came out at 20%.
Consider `COCCOc1cc2ncnc(NC3=CC(=O)C(N(C)c4ccc(OC)cc4)=CC3=O)c2cc1OC` [Example 78, 2-{[6-methoxy-7-(2-methoxyethoxy)quinazolin-4-yl]amino}-5-[(4-methoxyphenyl)(methyl)amino]benzo-1,4-quinone], for which the melting point was 197 to 198 °C. In addition, the “% Inhibition … in KDR15 cells” value in series [1] is on record as 61%. For the same compound, the IC50 in series [2] (ATP conc. 10 μM) is 147 nM and 95.9 nM and 406 nM. Moreover, in series [4] (conc. 100 nM), the inhibition at 0.1 µM amounted to 6% and the “% Inhibition of VEGF-dependent growth of HUVEC” value was determined as 9%. Moreover, in series [4] (conc. 10000 nM), the “% Inhibition of VEGF-dependent growth of HUVEC” value was 94% and 99% and 74%. Also, the IC50 in series [5] (no wash) was 147 nM and 95.9 nM. For the same compound, the IC50 in series [5] (wash out) was 514 nM and 150 nM.
Take `COc1cc2ncnc(NC3=CC(=O)C=C(C)C3=O)c2cc1OC` [Example 7, 2-[(6,7-dimethoxy-4-quinazolinyl)amino]-6-methylbenzo-1,4-quinone]: the “% Inhibition … in KDR15 cells” value in series [1] was 41%. Also, the IC50 was 2.3 nM and 1.3 nM in series [2] (ATP conc. 10 μM); 250 nM in series [3]; 2.3 nM in series [5] (no wash); 1.2 nM in series [5] (wash out). Moreover, the inhibition at 0.1 µM in series [2] (ATP conc. 10 μM) is 85%; in series [4] (conc. 100 nM), 23%. Besides, the values for the inhibition at 1 µM in series [2] (ATP conc. 10 μM), in series [2] (ATP conc. 1000 μM) and in series [4] were 96%, 97% and 79%, respectively. Besides, the inhibition at 10 µM turned out to be 96% in series [2] (Concentration 10000 nM, ATP conc. 10 μM) and 97% in series [4] (conc. 10000 nM).
